According to patent US9522962B2, “Peptides, conjugates and method for increasing immunogenicity of a vaccine” (Academisch Ziekenhuis Leiden h.o.d.n. LUMC, priority 2010, dated 2016):
“Also recorded” adds a separate entry of the source. Where two headings read alike, the source gives them in different places. Square brackets hold non-standard residues; d marks the D form. Ends that are not written are not given here. * marks the point of attachment. Biotin = O=C1N[C@H]2[C@H](CS[C@H]2CCCCC(=O)*)N1; Ahx = NCCCCCC(=O)O

Assays:
[1] = tested on: antibodies in individual human sera (e.g. serum 034960); assay: Tettox ELISA of biotinylated peptides on individual human sera; format: binding; conditions: for ELISA OD SERUM 034960: Table 6, conservative substitutions scan of […], human serum 034960 diluted 100x
Procedure: a 96-wells plate (preferably from Euro-Diagnostica, Arnhem, The Netherlands) is coated with streptavidin. The streptavidin coated 96 wells plate is blocked with PBS containing 5% BSA (200 μl/well, 1 h, room temperature). Subsequently, the plate is washed three times with PBS containing 0.05% TWEEN20® (polysorbate 20). A biotinylated peptide is coated by 1 h incubation at room temperature with 100 μl/well of a 2 μg/ml solution of the biotinylated peptide in PBS containing 1% BSA. The plate is washed three times with PBS containing 0.05% TWEEN20® (polysorbate 20) followed by incubation for 1 h at room temperature with 100 μl serum from […] a human subject as defined above (preferably having a high titer of anti-TTd antibodies) that had been diluted at least 100, 200, 400, 500 or 1000 times and preferably not more than 100,000, 10,000, 7,500, 5,000 or 2,500 times with PBS containing 1% BSA. Then the plate is washed three times with PBS containing 0.05% TWEEN20®(polysorbate 20). Each well is incubated for 1 h at room temperature with a HRP-conjugated IgG antibody (mouse anti-human IgG-HRP monoclonal, clone G18-145, cat no 555788, Becton Dickinson, 100 μl/well of a 1000× dilution in PBS containing 0.05% TWEEN20® (polysorbate 20)) after which the plate is washed three times with PBS containing 0.05% TWEEN20® (polysorbate 20). Development is performed with 2,2′-azino-di-(3-ethylbenzthiazoline sulfonic acid), ABTS+H2O2 1/1000, 100 μl/well. Optical density is measured at 415 nm with a BIO-RAD, model 680, microplate reader. In each plate, preferably a negative contol is included, more preferably at least in triplicate. A preferred negative contol is serum from a human subject without detectable anti-TTd antibodies. Another preferred negative control is a solution of BSA. A peptide according to (ii) above is a peptide according to the invention if it is bound by antibodies in at least 40, 45, 50, 55, 60, 65, 70, 75, 80, 85, 87, 90, 91, 92, 93, 94, 95, 96, 97, 98, 99% most preferably 100% of the tested human serum samples. A peptide is considered to be bound by antibodies in a serum sample if the determined optical density for that particular serum sample is at least 2.0, more preferably 2.5, 3.0, 3.5 or more times higher as compared to the optical density that is determined for the negative control.
Streptavidin coated 96 wells plates (Euro-Diagnostica) were blocked with PBS containing 5% BSA (200 μl/well, 1 h, room temperature). Plates were washed three times with PBS containing 0.05% TWEEN20® (polysorbate 20). Coating of the biotinylated peptides was performed by 1 h incubation at room temperature with 100 μl/well of a 2 μg/ml solution of the biotinylated peptide in PBS containing 1% BSA. Plates were washed three times with PBS containing 0.05% TWEEN20®. Wells were incubated for 1 h at room temperature with either 100 μl TETAQUIN® […] that had been diluted 800× with PBS containing 1% BSA or with 100 μl human serum that had been diluted 100× with PBS containing 1% BSA. Plates were washed three times with PBS containing 0.05% TWEEN20® (polysorbate 20). Each well was incubated for 1 h at room temperature with a HRP-conjugated IgG antibody (mouse anti-human IgG-HRP monoclonal, clone G18-145, cat no 555788, Becton Dickinson, 100 μl/well of a 1000× dilution in PBS containing 0.05% TWEEN20® (polysorbate 20)). Plates were washed three times with PBS containing 0.05% TWEEN20® (polysorbate 20). Development was performed with 2,2′-azino-di-(3-ethylbenzthiazoline sulfonic acid), ABTS+H2O2 1/1000, 100 μl/well. Optical density was measured at 415 nm with a BIO-RAD, model 680, microplate reader.
Thereafter, the inventors tested these 7 peptides on individual sera, because an epitope is needed to which every person makes antibodies.

[2] = tested on: antibodies in TETAQUIN® (anti-TTd antibodies); format: binding, human; conditions: for ELISA OD TETAQUIN: Table 6, conservative substitutions scan of […]
OVA-specific CD8 T cells = assay: Systemic antigen-specific T cell priming in TNP-BSA immunized mice challenged with TNP-OVA; format: in vivo
Procedure: Mice were repeatedly immunized with TNP-BSA resulting in high titers of circulating antibodies against the hapten TNP (TNP immunized) or left non-immunized (naïve).
After 1-2 months all mice were injected with naïve OVA-specific CD8 T cells which were labelled with the fluorescent dye CFSE. After 24 hrs the mice were injected with a single dose of TNP-OVA. 3 days later the mice were sacrificed and OVA-specific proliferation of the labelled T cells was analysed in spleen and lymph nodes by flow cytometry (FIGS. 2a and 2b). The symbols represent individual mice. […] Thus, systemic antigen-specific T cell priming can be facilitated by pre-existing circulating antibodies against hapten-epitopes.

F I G I T E L R K L E S K I N K V F Z O (FIGITELRKLESKINKVF[Ahx]K(Biotin)) [0942-35]
ELISA OD SERUM 034960 [1]: 0.90 | ELISA OD TETAQUIN [2]: 1.02

F I G L T E L K K L E S K I N K V F Z O (FIGLTELKKLESKINKVF[Ahx]K(Biotin)) [0942-31]
ELISA OD SERUM 034960 [1]: 1.19 | ELISA OD TETAQUIN [2]: 0.97

F I S I T E L K K L E S K I N K V F Z O (FISITELKKLESKINKVF[Ahx]K(Biotin)) [0942-30]
ELISA OD SERUM 034960 [1]: 1.32 | ELISA OD TETAQUIN [2]: 1.10

F L G I T E L K K L E S K I N K V F Z O (FLGITELKKLESKINKVF[Ahx]K(Biotin)) [0942-29]
ELISA OD SERUM 034960 [1]: 1.29 | ELISA OD TETAQUIN [2]: 1.19

QYIKANSKFIGITELKKLESKIZO [β32]
antibodies against the peptide in individual donor sera ([1]; 14 individual sera, FIGS. 5a-5n): All donors have antibodies | binding to TETAQUIN (screen of overlapping 22-mer TTx peptides) ([2]; FIG. 3 (α-chain), FIG. 4 (β-chain)): good binding; also recorded: antibodies present | OD ([2]; Table 2, length variants of peptide β-32, section 'With linker', […] diluted 800x, OD at 415 nm): 1.3 | OD ([2]; Table 2, length variants of peptide β-32, section 'Without linker' (sequence listed without Z O), […]): 1.3 | ELISA OD, effect of longer spacer and C- versus N-terminal biotinylation ([2]; Table 4, antibody source not given): 1.16

Y I G I T E L K K L E S K I N K V F Z O (YIGITELKKLESKINKVF[Ahx]K(Biotin)) [0942-28]
ELISA OD SERUM 034960 [1]: 1.30 | ELISA OD TETAQUIN [2]: 1.23

B1: TNP-OVA: non-related protein antigen (OVA) coupled to the hapten TNP (trinitrophenyl group) (conjugate, UniProt P01012 2-386, looked up)
Ovalbumin: GSIGAASMEFCFDVFKELKVHHANENIFYCPIAIMSALAMVYLGAKDSTRTQINKVVRFDKLPGFGDSIEAQCGTSVNVHSSLRDILNQITKPNDVYSFSLASRLYAEERYPILPEYLQCVKELYRGGLEPINFQTAADQARELINSWVESQTNGIIRNVLQPSSVDSQTAMVLVNAIVFKGLWEKAFKDEDTQAMPFRVTEQESKPVQMMYQIGLFRVASMASEKMKILELPFASGTMSMLVLLPDEVSGLEQLESIINFEKLTEWTSSNVMEERKIKVYLPRMKMEEKYNLTSVLMAMGITDVFSSSANLSGISSAESLKISQAVHAAHAEINEAGREVVGSAEAGVDAASVSEEFRADHPFLFCIKHIATNAVLFFGRCVSP
modifications: trinitrophenyl hapten conjugate
OVA-specific proliferation of CFSE labelled T cells in spleen and lymph nodes (OVA-specific CD8 T cells; TNP immunized mice vs other groups, single dose TNP-OVA, analysed 3 days later by flow cytometry, P<0.001): significantly different | T cell responses against OVA (OVA-specific CD8 T cells; TNP-BSA immunized mice compared to control mice vaccinated with BSA without TNP): much higher level
